In patent publication US10780094B2, “Use of carbonic anhydrase inhibitors for treatment of neurological and psychiatric disorders” (New York University, priority 2016, dated 2020):

What was measured:
Type in all cases: cell-based, human
D3 cells [1] = assay: Mitochondrial and cytoplasmic calcium assay (Rhod-2 AM, Fluo-4 AM); conditions: highest doses; 45 minutes
Experimental: This assay was performed as published in [60]. Briefly, cells were plated on 25 mm optical borosilicate poly-L-lysine-coated sterile glass covers, (ThermoFisher, Waltham, Mass., US) at a 70% confluence. 24 hours later, cells were loaded with 5 μM Rhod-2 AM or 2.5 μM Fluo-4 AM on HBSS for 45 minutes. Then, cells were washed twice with HBSS and incubated for another additional 15 minutes on fresh HBSS, without Rhod-2 AM or Fluo-4 AM. After that, HBSS was replaced again by fresh HBSS, glasses were mounted on microscopy chambers and experiments were conducted, after adding the pre-aggregated peptides and/or the drugs. Cells were mounted on Sykes-Moores chambers (BellCo, Vineland, N.J., US) and imaged every 15 seconds for 45 min, at a 20× magnification, using a Nikon fluorescent microscope (Chiyoda, Tokyo, Japan). Images were processed using NIS-Elements and ImageJ software. Due to the rapidity of this experiment, the peptide was pre-aggregated as described above to obtain oligomers before being added to the cells.

caspase 9 in D3 cells = assay: Caspase-Glo 9 activity after Aβ challenge; conditions: Example 2/3; FIG. 16D, 22
Experimental: (§1) Cells were plated at a confluence of 10.000 cells per well in 96-wells microplate luminescence microtiter (ThermoFisher, Waltham, Mass., US). The day after, cells were treated with the peptides and/or drugs for the experimental times. After that, caspase-Glo 9 assay was performed, following the protocol provided from the manufacturer. Luminescence was measured using a FlexStation 3 Multi-Mode Microplate Reader (Molecular devices, Sunnyvalem Calif., US).

SH-SY5Y cells = assay: Cell Death ELISAplus, Aβ-induced apoptosis (fragmented nucleosomes); conditions: for apoptosis in response to Aβ: Example 2/3, Aβ42 challenge, FIG. 17A, 21
Experimental: (§2) The extent of apoptosis caused by Aβ in the presence or absence of MTZ was assessed by quantitation of nucleosome formation using Cell Death ELISA^plus (Roche Applied Science, Indianapolis, Ind.). Briefly, after incubation with the peptides, plates were centrifuged in a Beckman J-6B centrifuge (10 min; 1,000 rpm), cells lysed, and DNA-histone complexes (nucleosomes) quantitated by Cell Death ELISA, as previously described (Fossati et al., 2010).
20.000 cells per well were plated on 24-wells plates. The day after, cells were treated with peptides and/or drugs, following the experimental conditions.
20,000 cells per well were plated on 24-wells plates. The day after, cells were treated with peptides and/or drugs, following the experimental conditions.

EC and SH-SY5Y cultures = assay: Immunofluorescence deconvolution microscopy of CytC and MitoTracker (mitochondrial membrane potential); conditions: for loss of mitochondrial membrane potential (red dye internalization): Example 3, cells treated with Aβ
Experimental: Both EC and SH-SY5Y cells were plated on to glass chamber slides (Thermo Fisher Scientific), pre-coated with either collagen-I or poly-d-lysine (for ECs and SH-SY5Y cells respectively). After seeding, cells were allowed to attach for 1 day before treatment with the different peptides for 1-3 days, as above. Cells were washed with ice-cold PBS, fixed with 4% paraformaldehyde (10 min at room temperature) and blocked for 1 h with 20 mg/ml BSA in PBST (PBS containing 0.3% Triton X-100). Slides were further incubated with mouse anti-CytC monoclonal antibody (BD Biosciences; 1:200 dilution in PBST containing 5 mg/ml BSA; 2 h at room temperature) followed by Alexa Fluor® 488-conjugated anti-(mouse IgG) antibody (Invitrogen; 1:200 in PBST with 5 mg/ml BSA; 1 h at room temperature). Fluorescence signals were visualized in a Nikon Eclipse E 800 deconvolution microscope using NIS Elements software (Nikon Instruments) for image acquisition and processing, and AutoQuant (Media Cybernetics) for 3D deconvolution. The effect of methazolamide in preventing the Aβ-induced release of CytC from the mitochondria into the cytoplasm was evaluated in EC and SH-SY5Y cultures. After peptide incubation in the presence and absence of methazolamide (Sigma), release of CytC was visualized by immunofluorescence microscopy and WB analysis, and corroborated by confocal assessment of CytC in conjunction with the mitochondrial marker MitoTracker®.

[2] = system: caspase 9 in SH-SY5Y neuronal cells; assay: Caspase-Glo 9 activity after Aβ challenge; conditions: for caspase 9 activation: Example 2/3, FIG. 16C, 22
Experimental: Caspase 9 and caspase 3/7 activation was measured by luminescent assays (Caspase-Glo 9 and caspase-Glo 3/7, Promega, Madison, Wis.), in cells treated with the Aβ peptides in DMEM without FBS. Briefly, 10,000 cells/well were plated in 96 wells plates and incubated for 24 hours with the freshly solubilized Aβ peptides. Caspase-Glo reagent was added to the cell cultures resulting in cell lysis, followed by caspase cleavage of the substrate and generation of a luminescent signal produced by the luciferase reaction. After 40 minutes incubation, the amount of caspase activity was evaluated in a plate-reading luminometer (Synergy HT Multi-Mode Microplate Reader, Biotek, Winooski, Vt.) as described in (Fossati et al., 2012b). To inhibit non-specific background activity, the proteasome inhibitor MG-132 was added to the Caspase-Glo reagent before the experiment as indicated by the manufacturer. In all cases results are expressed as fold-change compared to untreated control cells.
as §1

M059K Glioma cells = assay: Cell Death ELISAplus, Aβ-induced apoptosis (fragmented nucleosomes); conditions: for apoptosis in response to Aβ: Example 2, glial cells, FIG. 17C
Experimental: as §2

D3 cells [3] = assay: ATP measurement (CellTiter-Glo); conditions: co-treatment with the peptide; 3 hours
Experimental: Steady state levels of ATP were estimated using the Cell Titter-Glo, according to manufacturer's instructions. Briefly, 5×10^3 cells per well of both D3 and SHSY cells were plated on 96-wells plates. The day after, cells were treated with either 10 μM Q22 or 50 μM Ab42 peptides, respectively. Peptides were added alone or in combination with increasing concentrations of MTZ (100 and 300 μM) or AZT (30 and 300 μM). Controls were treated with either DMSO or 5 μM oligomycin. After 3 hours of treatment, the plates containing the cells were equilibrated to room temperature for 30 minutes prior to addition of the luciferin/luciferase/cell lysis mixture. Absolute luminescence from quadruplicate experiments was recorded using a SpectraMax plate reader (Molecular Devices, Sunnyvalem Calif., US).

[4] = Aβ-Iowa(isoD), 1 day, methazolamide starting at 100 μM

Compound: CC(=O)/N=c1/sc(S(N)(=O)=O)nn1C [MTZ, methazolamide]
- Aβ-induced decrease in mitochondrial and cytoplasmic Ca2+ (D3 cells [1]): counteract the effect exerted by the peptide
- caspase 9 activation (caspase 9 in D3 cells): protective effect
- DNA fragmentation after Aβ challenge (SH-SY5Y cells; 100 μM MTZ, Aβ42 10 μM or Aβ40-Q22 50 μM, 1 day): significantly effective at reducing DNA fragmentation
- Aβ-mediated increase in fragmented nucleosomes (SH-SY5Y cells; 300 μM MTZ, Aβ42 10 μM or Aβ40-Q22 50 μM, 1 day): completely prevented
- apoptosis in response to Aβ (SH-SY5Y cells): prevented
- mitochondrial membrane potential (MitoTracker localization) (EC and SH-SY5Y cultures; [4]): restored the mitochondrial membrane potential
- subcellular localization of CytC (EC and SH-SY5Y cultures; [4]): preserved the subcellular localization of CytC
- loss of mitochondrial membrane potential (red dye internalization) (EC and SH-SY5Y cultures): prevented
- caspase 9 over-activation ([2]; 100 or 300 μM MTZ, 10 μM Aβ42, 24 hours): completely inhibited
- caspase 9 activation [2]: protective effect
- caspase 9 activity, drug alone ([2]; MTZ alone in absence of Aβ): did not have any effect
- apoptotic phenotype caused by the Aβ peptides (M059K Glioma cells; 100 μM MTZ, Aβ42 10 μM or Aβ40-Q22 50 μM, 3 days): completely reverted the apoptotic phenotype
- Aβ-mediated increase in fragmented nucleosomes (M059K Glioma cells; 300 μM MTZ, Aβ42 10 μM or Aβ40-Q22 50 μM, 3 days): completely prevented
- apoptosis in response to Aβ (M059K Glioma cells): prevented
- Q22-induced increase in steady state ATP levels (D3 cells [3]): unaffected

Compound: CC(=O)Nc1nnc(S(N)(=O)=O)s1 [ATZ, acetazolamide]
- Aβ-induced decrease in mitochondrial and cytoplasmic Ca2+ (D3 cells [1]): counteract the effect exerted by the peptide
- caspase 9 activation (caspase 9 in D3 cells): protective effect
- apoptosis in response to Aβ (SH-SY5Y cells): prevented
- loss of mitochondrial membrane potential (red dye internalization) (EC and SH-SY5Y cultures): prevented
- caspase 9 activation [2]: protective effect
- apoptosis in response to Aβ (M059K Glioma cells): prevented
- Q22-induced increase in steady state ATP levels (D3 cells [3]): unaffected
